Measured values taken from patent US20250304973A1, “HIGH-AFFINITY THROMBIN APTAMERS AND METHODS OF USE” (Ayass Bioscience LLC, priority 2024, published 2025).
Entries after “also recorded” stand apart in the source; their conditions may differ.

Tests used:
[1] = tested on: Salmonella typhimurium strains TA98, TA100, TA1535, TA1537 and Escherichia coli strains wp2 [pKM101] and wp2 uvrA; assay: Ames test (Xenometrix Ames MPF PENTA I); assay type: cell-based; conditions: 0.5 uM to 10 uM; with and without S9
Method: 148. The mutagenic potential of AYA1809002 and AYA1809004 was evaluated using the Ames test with the Xenometrix Ames MPF PENTA I kit, including S9 and Positive Controls (Aniara Diagnostica, code: ACO1-512-S2-P; manufacturer's part number: C01-512-S2-P, West Chester Township, OH).
165. To assess the mutagenicity of the aptamers, we performed Ames test, a widely used assay for evaluating the mutagenicity of chemical compounds. The Ames test is a bac-terial reverse mutation assay that detects the ability of a substance to induce mutations in the DNA of certain strains of bacteria. It utilizes various bacterial strains, including Salmonella typhimurium strains TA98, TA100, TA1535, and TA1537, as well as the Escherichia coli strains wp2 [pKM101]and wp2 uvrA. To evaluate the mutagenic potential of an aptamer, amino acid-requiring bacterial organisms are exposed to different concentrations of the aptamer and mutagenic events are assessed by selecting for reversion events. In this context, the aptamers AYA1809002 and AYA1809004 were supplemented at increasing concentrations ranging from 0.5 uM to 10 uM.

[2] = biological target: thrombin (Homo sapiens, UniProt P00734); assay: Thrombin inhibition IC50 (Table 3); assay type: biochemical; conditions: Table 3, AYA1809002
[3] = biological target: thrombin over other serine proteases (Homo sapiens, UniProt P00734); assay: Selectivity for thrombin over other serine proteases (Table 3); assay type: biochemical; conditions: Table 3, AYA1809002
[4] = Major bleeding rate in animal studies (Table 3); assay type: in vivo
[5] = Pharmacokinetics and renal clearance (Table 3); assay type: in vivo; conditions: Table 3, AYA1809002
[6] = Onset, consistency and reversal of anticoagulant effect (Table 3); assay type: in vivo; conditions: Table 3, AYA1809002
[7] = tested on: rat whole blood; assay: Factor II activity, PT, APPT and TT in rat whole blood; assay type: biochemical; conditions: dose-dependent manner
[8] = Storage stability (Table 3); assay type: physicochemical; conditions: after 24 months at room temperature

Substance | mutagenicity (revertants) [1] | IC50 [2] | selectivity for thrombin over other serine proteases [3] | major bleeding rate [4] | Renal Clearance [5] | Anticoagulant Effect Consistency: inter-individual variability in aPTT prolongation [6] | Onset of Action: peak effect [6] | APPT in rat whole blood [7] | Factor II activity in rat whole blood [7] | PT in rat whole blood [7] | TT in rat whole blood [7] | activity maintained on storage [8]
AYA1809004: ssDNA thrombin aptamer TCGTCAAGGTACGGTTGGGGGGGTGGGTGTTGACGTTGAA (DNA, backbone not given here) | do not exhibit mutagenic properties | – | – | – | – | – | – | – | – | – | – | –
AYA1809002: ssDNA thrombin aptamer GCGGTGTTGCTGGGGTTGGGAGGTTGGAGGAAGCAATCGC | do not exhibit mutagenic properties; also recorded: did not exhibit mutagenic properties | ≤ 0.5 nM | >100-fold selectivity | (≤2% major bleeding | <50% | <15% inter-individual | Peak effect withing 1 hour | extend | inhibit | extend | extend | Maintain >95%
